From PMC12935919 (Frontiers in Pharmacology, 2026)
No end group written: not given here.

Key:
[1] = system: patients with muscle atrophy (ICD-10-CM code: M62.5); experiment: Clinical trial: handgrip strength (hand dynamometer); format: in vivo, human
Method: (§1) The study was conducted at Biosite Research Private Limited (Shanthipura, India) under the New Drugs and Clinical Trials Rules (2019) issued by CDSCO (Ministry of Health and Family Welfare, Government of India), and in compliance with GCP, applicable local regulatory requirements, the Declaration of Helsinki ([…]), ICMR guidelines (2017), and ICH-GCP E6 (R2). Ethical approval was obtained from the Excel Hospital Institutional Ethics Committee (ECR/1670/Inst/TG/2022) and ethics committees of other participating centers, and the trial was prospectively registered (CTRI/2024/01/061919). All participants provided written informed consent prior to any study procedures. Key eligibility criteria included adults aged ≥18 years with low muscle mass by DEXA (men: <7.0 kg/m^2; women: <5.4 kg/m^2) and either low handgrip strength (men: <28 kg; women: <18 kg) or low physical performance (6-m walk speed <1.0 m/s). Major exclusion criteria included uncontrolled systemic disease, musculoskeletal or neurological disorders, recent anabolic steroid use, and concomitant medications known to affect protein metabolism; full inclusion and exclusion criteria are provided in Supplementary Table S1. Of 89 patients screened, seven were screen failures and two withdrew prior to randomization; 80 eligible participants were enrolled and proceeded to the baseline/randomization visit (mean age 38.83 ± 9.91 years; range 23-69). […] The study was double-blind; participants, investigators, and study staff were unaware of treatment allocation throughout the trial. […] Efficacy endpoints were evaluated as changes from baseline to Week 12; efficacy analyses were conducted in the per-protocol population, and safety analyses included all randomized participants who received at least one dose of study product (Supplementary Figure S2). Of 80 randomized participants, 75 completed the study. Statistical analyses were performed using SAS (version 9.4; SAS Institute Inc., Cary, NC, USA). Continuous variables were summarized as N, mean (SD), median, minimum, and maximum, and categorical variables as n (%), with percentages calculated as n/N × 100. Changes from baseline to Week 12 in DEXA-assessed muscle mass, 6-m walk test, and handgrip strength were analyzed using ANCOVA, adjusting for the corresponding baseline value. Least-squares means (LSMs), 95% confidence intervals, and two-sided p-values were reported, with p < 0.05 considered statistically significant.

C2C12 cells [2] = experiment: RT-PCR / RT-qPCR of MRF genes; format: cell-based; conditions: Day 3; Myf6, MyoD, MyoG; normalized to GAPDH
Method: For RT-PCR, the PCR products were electrophoresed in 1.5% agarose gel containing EtBr at 100 V for 30 min and visualized using a ChemiDocTM XRS imaging system (Bio-Rad, Hercules, CA, USA). RT-qPCR was performed using SYBR Green PCR Master Mix (Applied Biosystems, Foster City, CA, USA) for quantitative analysis. Glyceraldehyde-3-phosphate dehydrogenase (GAPDH) was used as a housekeeping gene for normalization. Relative quantification (RQ) was calculated using the ΔΔCt method, and data were expressed as RQ values by comparing the threshold cycle (Ct) of each target gene to that of GAPDH. The linearity and amplification efficiency of the PCR reactions were evaluated using serial dilutions of cDNA, and all reactions were performed in triplicate. The primer sequences used were as follows: Myf5 forward ([NT]), Myf5 reverse ([NT]), Myf6 forward ([NT]), Myf6 reverse ([NT]), MyoD forward ([NT]), MyoD reverse ([NT]), MyoG forward ([NT]), MyoG reverse ([NT]).

SAMP8 mice = experiment: Sirius Red collagen deposition in muscle; format: in vivo, mouse; conditions: normalized to SAMR1 = 100%, oral gavage 45 weeks, 20 mg in 200 µL PBS, n = 5, mean ± SD
Method: Eight week old male senescence-accelerated mouse-prone 8 (SAMP8)/Ta Slc and senescence-accelerated mouse-resistant 1 (SAMR1)/Ta Slc mice (weighing 30 ± 2 g) were purchased from Central Lab Animal Inc. (Seoul, Korea) and housed at 24 °C in cages under a 12/12 h light/dark cycle with ad libitum access to food and water. […] Mice in all groups were dosed once daily by oral gavage for 45 weeks. […] This study was approved by the Institutional Animal Care and Use Committee (approval number CG-R22-001).
Quadriceps (Quad) and gastrocnemius (Gas) muscle tissues were harvested and immersion-fixed in 10% neutral buffered formalin at 4 °C for 24 h. Following fixation, the tissues were dehydrated through a graded series of ethanol, cleared in xylene, and embedded in paraffin. Paraffin-embedded tissues were sectioned at a thickness of 5 μm. The tissue sections mounted on slides were deparaffinized, washed, and stained with hematoxylin (Dako, S3309) and eosin (Thermo Fisher Scientific, #6766007) (H&E). To assess the degree of muscle fibrosis, they were also stained using a Sirius Red Stain Kit (Abcam, ab150681) according to the manufacturer’s instructions. […] For each animal, three images were randomly selected from the stained sections, and the total stained area per image, rather than individual muscle fibers, was quantified using ImageJ software.

[3] = system: patients with muscle atrophy (ICD-10-CM code: M62.5); experiment: Clinical trial: muscle mass by DEXA; format: in vivo, human
Method: (§2) The study was conducted at Biosite Research Private Limited (Shanthipura, India) under the New Drugs and Clinical Trials Rules (2019) issued by CDSCO (Ministry of Health and Family Welfare, Government of India), and in compliance with GCP, applicable local regulatory requirements, the Declaration of Helsinki ([…]), ICMR guidelines (2017), and ICH-GCP E6 (R2). Ethical approval was obtained from the Excel Hospital Institutional Ethics Committee (ECR/1670/Inst/TG/2022) and ethics committees of other participating centers, and the trial was prospectively registered (CTRI/2024/01/061919). All participants provided written informed consent prior to any study procedures. […] Efficacy endpoints were evaluated as changes from baseline to Week 12; efficacy analyses were conducted in the per-protocol population, and safety analyses included all randomized participants who received at least one dose of study product (Supplementary Figure S2). […] Continuous variables were summarized as N, mean (SD), median, minimum, and maximum, and categorical variables as n (%), with percentages calculated as n/N × 100. Changes from baseline to Week 12 in DEXA-assessed muscle mass, 6-m walk test, and handgrip strength were analyzed using ANCOVA, adjusting for the corresponding baseline value. […]

[4] = system: patients with muscle atrophy (ICD-10-CM code: M62.5); experiment: Clinical trial: 6-m walk test; format: in vivo, human
Method: as §2

C2C12 cells [5] = experiment: Preliminary screening of candidate peptides; format: cell-based
From the text: Supplementary Figure 1. […] Western blot images from the screening experiment are shown, and the summary table indicates peptides that met each criterion (O, yes; X, no; –, not determined).

[6] = system: patients with muscle atrophy (ICD-10-CM code: M62.5); experiment: Clinical trial: serum biomarkers; format: in vivo, human
Method: as §1

[7] = Week 12, 200 mg/day, ANCOVA, p <0.01

## EAEYEHL-OH [Myoki]
[1]; 200 mg peptide/day oral, N = 38, 95% CI (0.77 to 1.37), placebo 0.81
  Hand grip strength test (Left hand), change from baseline to Week 12 (LS mean): 1.07 kg
[1]; 200 mg peptide/day oral, N = 38, 95% CI (0.94 to 1.60), placebo 0.85
  Hand grip strength test (Right Hand), change from baseline to Week 12 (LS mean): 1.27 kg
[1]; Week 12, 200 mg/day, ANCOVA, p 0.02
  Hand grip strength test (Left hand), difference between placebo and treatment (95% CI): 0.27 kg
[1]; Week 12, 200 mg/day, ANCOVA, p 0.04
  Hand grip strength test (Right Hand), difference between placebo and treatment (95% CI): 0.43 kg
C2C12 cells [2]
  MRF gene expression (mRNA): significant increase
SAMP8 mice; untreated SAMP8 185% ± 10.61%, difference not statistically significant
  collagen deposition, quadriceps: 151% ± 28.82%
SAMP8 mice; untreated SAMP8 291% ± 19.72%
  collagen deposition, gastrocnemius: 194% ± 22.84%
[3]; Myoki + arginine + maltodextrin, 200 mg peptide/day oral, N = 38, 95% CI (736.90 to 1124.7), placebo 225
  Lean muscle mass, change from baseline to Week 12 (LS mean): 930.8 g
[3]; [7]
  Lean muscle mass, difference between placebo and treatment (95% CI): 705.8 g
[4]; 200 mg peptide/day oral, N = 38, 95% CI (−1.36 to −0.87), placebo −0.77
  Time to complete 6-meter walk test (TTC-6mWT), change from baseline to Week 12 (LS mean): -1.12 s
[4]; [7]
  Time to complete 6-meter walk test, difference between placebo and treatment (95% CI): -0.34 s
C2C12 cells [5]
  myotube differentiation (screening): promoted myotube differentiation
C2C12 cells [5]; DEX
  DEX-induced activation of muscle protein degradation signaling, particularly atrogin-1/MAFbx upregulation (screening): attenuated
[6]; 200 mg peptide/day oral, N = 38, 95% CI (19.49 to 43.40), placebo 13.51
  IGF-1, change from baseline to Week 12 (LS mean): 31.44 ng/mL
[6]; 200 mg peptide/day oral, N = 38, 95% CI (−1.54 to 9.48), placebo 4.3
  TNF-alpha, change from baseline to Week 12 (LS mean): 3.97 pg/mL
[6]; 200 mg peptide/day oral, N = 38, 95% CI (−2.13 to 1.04), placebo 3.41
  Creatine kinase (CK-MB), change from baseline to Week 12 (LS mean): -0.54 ng/mL
[6]; 200 mg peptide/day oral, N = 38, 95% CI (−2.59 to 2.67), placebo 1.31
  IL-6, change from baseline to Week 12 (LS mean): 0.04 pg/mL
[6]; 200 mg peptide/day oral, N = 38, 95% CI (−6.14 to 0.49), placebo 2.57
  Aspartate aminotransferase, change from baseline to Week 12 (LS mean): −2.83 IU/L
[6]; 200 mg peptide/day oral, N = 38, 95% CI (−8.11 to 3.36), placebo −1.98
  Sex hormones (Estrogen), change from baseline to Week 12 (LS mean): -2.37 pg/mL
[6]; 200 mg peptide/day oral, N = 38, 95% CI (−10.33 to −2.56), placebo 8.15
  Myoglobin, change from baseline to Week 12 (LS mean): -6.45 ng/mL
[6]; 200 mg peptide/day oral, N = 38, 95% CI (−21.09 to 114.17), placebo −29.9
  Sex hormones (testosterone), change from baseline to Week 12 (LS mean): 46.54 pg/mL
[6]; Week 12, 200 mg/day, p 0.025
  Aspartate aminotransferase, difference between placebo and treatment (95% CI): −5.39 IU/L
[6]; Week 12, 200 mg/day, p 0.038
  IGF-1, difference between placebo and treatment (95% CI): 17.93 ng/mL
[6]; Week 12, 200 mg/day, p <0.01
  Creatine kinase (CK-MB), difference between placebo and treatment (95% CI): -3.95 ng/mL
  Myoglobin, difference between placebo and treatment (95% CI): -14.6 ng/mL
